The subject of one series is HT1080 cells. Kind of series: Efficacy in HT1080 tumor model. The series is classed as in vivo. As to conditions: HT1080, nude mice, 18 umol/kg IV once weekly for 3 weeks. An excerpt: Test purpose: to investigate the anti-tumor efficacy of QHL-086, QHL-092, QHL-095, QHL-087, QHL-010, QHL-117 in mice model for tumor treatment.
Test drug: C3, QHL-086, QHL-092, QHL-095, QHL-087, QHL-010, QHL-117 injections and mitomycin injection, diluted to corresponding concentrations by physiological saline when testing.
(§1) 1. Animal: nude mice of 6-8 weeks old, all female.
1) HT1080 cells were purchased from American type culture collection (ATCC) and identified according the specification provided by ATCC.
(§2) 2) Production of tumor. […] Mice were randomly grouped after the tumor reached at least 100 mm^3. Then treatment began and the day on which the treatment began was day 1.
According to the clinical application of C3, QHL-086, QHL-092, QHL-095, QHL-087, QHL-010, QHL-117 were intravenously injected (IV). C3, QHL-086, QHL-092, QHL-095, QHL-087, QHL-010, QHL-117 were administered in a low and same dose of 18 umol/kg. The control group was administered by physiological saline. Drugs were administered once weekly for 3 weeks.

For series [1], the system named is Human liver cancer HepG2 cells. The series can be described thus: Efficacy on human liver cancer HepG2 cells in nude mice. The series is classed as in vivo. As to conditions: 54 umol/kg IV once weekly for four weeks.
Source text: Test purpose: to investigate the anti-tumor efficacy of some compounds of the invention in mice model for tumor treatment.
Test drug: QHL-095, QHL-008, QHL-086, QHL-116, QHL-119, QHL-092, QHL-006, QHL-089, QHL-005, QHL-007, QHL-096, QHL-012, QHL-087, QHL-117, QHL-120, QHL-093, QHL-010, QHL-090, QHL-009, QHL-011 injections and control group injection, diluted to corresponding concentrations by physiological saline when testing.
as §1
1) Human liver cancer HepG2 cells were purchased from American type culture collection (ATCC) and identified according the specification provided by ATCC.
as §2
According to the clinical application of QHL-095, QHL-008, QHL-086, QHL-116, QHL-119, QHL-092, QHL-006, QHL-089, QHL-005, QHL-007, QHL-096, QHL-012, QHL-087, QHL-117, QHL-120, QHL-093, QHL-010, QHL-090, QHL-009, QHL-011, drugs were intravenously injected (IV). Compounds and control groups were administered in a dose of 54 umol/kg. The control group was administered by physiological saline. Drugs were administered once weekly for four weeks.

The subject of a further series is tumor CD8+ T cells. Kind of series: CT26 tumor immune model: tumor CD8+ T cells (CD8 positive in CD45 positive cells, flow cytometry). The series is classed as in vivo, BALB/c mice. As to conditions: ratio of CD8 positive cells in CD45 positive cells in tumor, compounds 18 μmol/kg, PD-1 antibody 5 mg/kg. For orientation: Flow cytometry measures light scatter and fluorescence of single cells or particles in a stream.

The nature of series [2]: Tissue distribution of released doxorubicin in orthotopic transplantation CT26 tumor in liver. As to conditions: tissues at 1-72 hr, FIG. 2, FIG. 3.
Procedure: Production of tumor model: CT26 tumor cells were purposed from ATCC. Cells were cultivated in DMEM culture solution containing 10% fetal bovine serum at 37° C. and 5% CO2. The cells were passaged for every three days and cells within the 15th passage were used.
5×10^5CT26 cancer cells were subcutaneously injected to the back of the nude mice. Mice were randomly grouped after the tumor reached 800-1000 mm^3. Then extract the tumor tissue and cleave to 100 mm3 tumor tissue block and orthotopic transplant into BALB/c mice liver. After 14 days, when orthotopic transplantation tumor grow up, 36 mice with orthotopic transplantation tumor for a group are treated with drug. Then collect the different tissue at 1, 6, 12, 24, 36, 72 hr to detect the concentration of releasing doxorubicin in different tissue.
The test system of series [3] is acidized human breast cancer (MDA-MB435) tumor tissue homogenates. Kind of series: Activation efficiency of the linker by tumor tissue homogenates (HPLC). The series is classed as biochemical. As to conditions: Table 4-1; 37° C., MDA-MB435 tumor tissue homogenates pH6.0, compound 1 mg/ml. How it is done: When the C selected AAN, The activation of different S-C-A linker and control linker was evaluated in the activation assay, The S-C-A conjugate was used to dissolve and they were diluted for ten times to a concentration of 0.1 mM/ml. At 37° C., sample compounds were added into 100 μg acidized human breast cancer (MDA-MB435) tumor tissue homogenates (pH6.0) in a concentration of 1 mg/ml. The enzyme in tumor tissue homogenates could release and detected by HPLC, thereby comparing the activation efficiency of the linker by the tumor tissue.

A short description of series [4]: Water solubility of freeze-dried compounds in water (observation and HPLC).
The test system of a further series is CT26 tumor cells. The series can be described thus: CT26 tumor immune model: inhibition of tumor. The series is classed as in vivo. As to conditions: CT26 subcutaneous tumor, BALB/c mice, compounds 18 μmol/kg, mouse PD-1 antibody 5 mg/kg.

Non-standard residues stand in square brackets, D forms with d. Residues, ends and D or L forms follow the SMILES beside them. ξ: configuration not given here. *: point of attachment. Doxorubicin(3'-N) = COc1cccc2c1C(=O)c1c(O)c3c(c(O)c1C2=O)C[C@@](O)(C(=O)CO)C[C@@H]3O[C@H]1C[C@H](N*)[C@H](O)[C@H](C)O1; Hexanoyl(6-maleimido) = O=C1C=CC(=O)N1CCCCCC(=O)*; Butanoyl(4-maleimido) = O=C1C=CC(=O)N1CCCC(=O)*; X1 = O=C1C=CC(=O)N1CCOCCOCCOCCC(=O)*; PEG2 = NCCOCCOCCC(=O)O; ξL = CC(C)CC(N)C(=O)O A value given as a limit tells only on which side of the number the result lay.

Procedure for CT26 tumor cells: Test purpose: to investigate the anti-tumor efficacy of different compounds in CT26 cancer model for immune treatment.
1) CT26 tumor cells were purposed from ATCC. Cells were cultivated in DMEM culture solution containing 10% fetal bovine serum at 37° C. and 5% CO2. The cells were passaged for every three days and cells within the 15th passage were used.
(§3) 2) 5×10^5CT26 cancer cells were subcutaneously injected to the back of the nude mice. Mice were randomly grouped after the tumor reached at least 100 mm^3 Then treatment began and the day on which the treatment began was day 1.
Procedure for tumor CD8+ T cells: as §3
3) Analysis on tumor CD8+ T cells. The tumor tissue was homogenated and individual cells in the tumor were filtered, separated and washed by buffer twice, then cultivated with the leucocyte common antigen CD45-PE and CD8-FITC marked antibodies for 1 hour at ambient temperature. The cells were washed by phosphate buffer containing 1% fetal bovine serum twice and then analyzed for the ratio of the T lymphocyte antigen (CD8) positive cells in the leucocyte common antigen (CD45) positive cells by flow cytometry.

In the case of `COc1cccc2c1C(=O)c1c(O)c3c(c(O)c1C2=O)C[C@@](O)(C(=O)CO)C[C@@H]3O[C@H]1C[C@H](N)[C@H](O)[C@H](C)O1` [C1 DOX, Doxorubicin], in the series with HT1080 cells, the “Size of tumor (mm^3) Day 28” value came to 754.4 ± 587.4 mm^3 and the “inhibitory rate on tumor Day 28” value came to 56.8%. In series [1], the “Size of tumor (mm^3) Day 28” value turned out to be 1683.4 ± 1087.4 mm^3 and the “inhibitory rate on tumor Day 28” value is reported as 41.9%.

Broadly, the solubility is the concentration that dissolves in the medium under given conditions. Low values mean little dissolved substance, high ones much dissolved substance. On to `COc1cccc2c1C(=O)c1c(O)c3c(c(O)c1C2=O)C[C@@](O)(C(=O)CO)C[C@@H]3O[C@H]1C[C@H](NC(=O)[C@H](CC(C)C)NC(=O)[C@H](CC(N)=O)NC(=O)[C@H](C)NC(=O)[C@H](C)NC(=O)CCCCCN2C(=O)C=CC2=O)[C@H](O)[C@H](C)O1` [C3 EMC-AANL-DOX], for which the “CD8:CD45 (%)” value in the series on tumor CD8+ T cells turned out to be 8.9%. Further, the “active doxorubicin tissue distribution, in words” value in series [2] is listed as “major in orthotopic tumor in liver”. Also, the “Size of tumor (mm^3) Day 28” value is 138.3 ± 124.6 mm^3 with HT1080 cells, 218.3 ± 167.7 mm^3 in series [1] and 624.5 ± 313.6 mm^3 with CT26 tumor cells (Day 28). Further, the “inhibitory rate on tumor Day 28” value in the series with HT1080 cells was found to be 92.1%; in series [1] it was 92.5%. Besides, in series [3], the “Activation (%)” value came to 56.4%. Besides, the solubility in series [4] is below 5000 µg/mL. For the same molecule, the “inhibitory rate on tumor % Day 18” value in the series with CT26 tumor cells (Day 18 as printed) worked out at 66.9%.

Regarding `COc1cccc2c1C(=O)c1c(O)c3c(c(O)c1C2=O)C[C@@](O)(C(=O)CO)C[C@@H]3O[C@H]1C[C@H](NC(=O)C(CC(C)C)NC(=O)[C@H](CC(N)=O)NC(=O)[C@H](C)NC(=O)[C@H](C)N)[C@H](O)[C@H](C)O1` (some centres unmarked) [C2 AANL-DOX] (H-AAN[ξL]-{Doxorubicin(3'-N)}), in the series with HT1080 cells, the “Size of tumor (mm^3) Day 28” value was 318.5 ± 197.6 mm^3 and the “inhibitory rate on tumor Day 28” value is 81.8%. Moreover, in series [1], the “Size of tumor (mm^3) Day 28” value was determined as 1564 ± 689.4 mm^3 and the “inhibitory rate on tumor Day 28” value was 46.0%. Besides, the “Activation (%)” value in series [3] is given as 42.1%. Further, the solubility in series [4] is below 1000 µg/mL.

Consider `COc1cccc2c1C(=O)c1c(O)c3c(c(O)c1C2=O)C[C@@](O)(C(=O)CO)C[C@@H]3O[C@H]1C[C@H](NC(=O)[C@H](CC(C)C)NC(=O)[C@H](CC(N)=O)NC(=O)[C@H](C)NC(=O)[C@H](C)NC(=O)[C@@H](NC(=O)CCCCCN2C(=O)C=CC2=O)C(C)C)[C@H](O)[C@H](C)O1` [QHL-123] ({Hexanoyl(6-maleimido)}-VAANL-{Doxorubicin(3'-N)}), for which, in “physchem”, the solubility is above 2000 µg/mL.

The molecule `COc1cccc2c1C(=O)c1c(O)c3c(c(O)c1C2=O)C[C@@](O)(C(=O)CO)C[C@@H]3O[C@H]1C[C@H](NC(=O)[C@H](CC(C)C)NC(=O)[C@H](CC(N)=O)NC(=O)[C@H](C)NC(=O)[C@H](C)NC(=O)[C@H](CC(=O)O)NC(=O)CCOCCOCCOCCN2C(=O)C=CC2=O)[C@H](O)[C@H](C)O1` [QHL-034] (X1-DAANL-{Doxorubicin(3'-N)}) registered a solubility in series [4] above 20000 µg/mL.

`COc1cccc2c1C(=O)c1c(O)c3c(c(O)c1C2=O)C[C@@](O)(C(=O)CO)C[C@@H]3O[C@H]1C[C@H](NC(=O)[C@H](CC(C)C)NC(=O)[C@H](CC(N)=O)NC(=O)[C@H](C)NC(=O)[C@H](C)NC(=O)[C@H](CC(=O)O)NC(=O)CCOCCOCCNC(=O)CCCN2C(=O)C=CC2=O)[C@H](O)[C@H](C)O1` [QHL-066] ({Butanoyl(4-maleimido)-PEG2}-DAANL-{Doxorubicin(3'-N)}) returned a solubility in series [4] above 15000 µg/mL.
